Assay results from article PMC3608752 (Annals of neurology, 2013).

Biological target: T1, PH20 hyaluronidase (bovine testicular hyaluronidase, BTH/PH20) (Bos taurus, UniProt Q2YDK3)
T1 sequence (Q2YDK3 36-553): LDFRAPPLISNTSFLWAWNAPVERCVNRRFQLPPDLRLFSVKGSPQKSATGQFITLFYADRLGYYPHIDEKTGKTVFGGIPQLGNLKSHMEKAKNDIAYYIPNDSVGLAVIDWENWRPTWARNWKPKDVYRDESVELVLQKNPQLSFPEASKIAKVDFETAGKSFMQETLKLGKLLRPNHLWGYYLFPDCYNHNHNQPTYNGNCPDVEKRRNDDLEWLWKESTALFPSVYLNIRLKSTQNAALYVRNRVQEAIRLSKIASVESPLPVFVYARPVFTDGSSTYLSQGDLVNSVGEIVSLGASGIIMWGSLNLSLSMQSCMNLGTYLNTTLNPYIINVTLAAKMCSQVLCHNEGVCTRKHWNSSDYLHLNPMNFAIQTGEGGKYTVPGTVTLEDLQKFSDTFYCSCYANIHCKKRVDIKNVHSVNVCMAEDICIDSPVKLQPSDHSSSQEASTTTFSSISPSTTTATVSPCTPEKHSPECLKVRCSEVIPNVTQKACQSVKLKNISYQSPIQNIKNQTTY
Format: biochemical

CCCCCCCCCCCCCCCC(=O)OC[C@H](O)[C@H]1OC(=O)C(O)=C1O [VCPAL, 6-O-Palmitoyl-L-ascorbic acid]
IC50: ~33 µM
